Experimental data reported in PubChem BioAssay AID624404 (Broad Institute, 2012).
Records with an inconclusive call do not appear. The source made the active and inactive calls.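 Rule for the calls: active = luciferase signal rise whose fitted curve crosses a set activity limit at or below the top valid tested dose; inconclusive = flat fit with 30 to 70% rise, or poor fit; inactive = signal falling, flat within 30%, or crossing above top dose.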

System: D54 LucT luciferase reporter counterscreen, luminescence, 24 h
Assay: luciferase activators in glycosylation-insensitive reporter cells, dose response, counter-screen for N-linked glycosylation inhibitor project, D54 LucT cells, luminescence, cherry pick (AID 624404)

SMILES	AC35
COc1cc2c(cc1OC)C(c1ccccc1)N(C(=O)c1ccccc1F)CC2 (configuration not stated)	608 nM
Cc1ccc(NC2=NC3(CCCC3)N=C(N)N2)c(C)c1	7540 nM
CS(=O)(=O)c1cccc(C(=O)Nc2ccc(-c3nc4ccccc4[nH]3)cc2)c1	3750 nM
NNC(=O)c1ccc2nc(-c3ccc(Br)cc3)cn2c1	780 nM
OCC1OC(n2ccc3c(SCc4ccccc4)ncnc32)C(O)C1O (configuration not stated)	148 nM
O=C1OCC2=C1C(c1ccc3c(c1)OCO3)c1cc3c(cc1O2)OCO3 (configuration not stated)	352 nM
C=CCn1c(O)c(C(CC)=NC(C)c2ccccc2)c(=O)[nH]c1=O (configuration not stated)	1080 nM
Cc1ccc(Nc2nc(N)nc(CN3CCN(Cc4ccccc4)CC3)n2)cc1Cl	107 nM
O=C(Nc1ccc(S(=O)(=O)N2CCOCC2)cc1)c1cc(-c2cc(Cl)ccc2O)n[nH]1	1370 nM
COc1ccccc1/C=C/C(=O)/C=C/c1ccccc1O	266 nM
COc1ccc(C2=NOC(C(=O)NCc3cccs3)C2)cc1 (configuration not stated)	1140 nM
CC1(C(=O)NCC2CCOCC2)Cc2c(-c3cccc(C(F)(F)F)c3)ccnc2O1 (configuration not stated)	32.5 nM
CCOc1ccc2cc(/C=C/C(=O)c3ccco3)c(Cl)nc2c1	4140 nM
COc1ccc(/C=N/NC(=O)c2sccc2OCc2ccc(F)cc2)cc1OC	952 nM
CC(=O)Nc1ccc(CNc2ncnc3ccc(-c4c(C)noc4C)cc23)cc1	264 nM
COC(=O)c1ccc(C)c(NC(=O)CN(c2cc(OC)ccc2OC)S(C)(=O)=O)c1	226 nM
Cc1ccc(N2CCN(C3=NC(=O)/C(=C\c4cn[nH]c4-c4ccccc4)S3)CC2)cc1	793 nM
CC[C@H](C)[C@@H](NC(=O)O[C@@H]1C(=O)c2cc(OC)ccc2O[C@H]1c1ccc(OC)c(Br)c1)C(=O)OC	1480 nM
Cc1ccc(-n2c(SCC(=O)NCCC3=CCCCC3)nc3n[nH]c(C)c3c2=N)cc1Cl	39.9 nM
COc1ccc2c(c1)[C@H]1[C@H](CO2)[C@H](c2ccccc2)[C@]2(C)C(=O)Nc3cc(F)c(F)cc3C(=O)N12	469 nM
CCc1ccc(C2c3[nH]c4ccccc4c3CCN2C(=O)c2ccc(=O)n(C)n2)cc1 (configuration not stated)	1240 nM
CCc1nc2ccc(C(=O)NCCc3c[nH]c4ccccc34)cn2c1N(C=O)CCC(C)C	645 nM
Cc1cccc(C(=O)Oc2ccccc2/C=N/NC(=O)c2ccc(NC(=O)C(C)(C)C)cc2)c1	2690 nM
Cc1ccc(O)c(C(=O)C=Cc2ccccc2)c1	8.29 nM
COc1ccc(C(=O)CSc2nnc(-c3cc4ccccc4cc3O)n2Cc2ccco2)cc1	1800 nM
CCOC(=O)c1c(NC(=O)c2cc3n(n2)C(C(F)(F)F)CC(c2cccs2)N3)sc(C)c1C (configuration not stated)	5360 nM

SMILES	AC35
CCOC(=O)Nc1nc2ccc(Cn3cccc3)cc2[nH]1	115 nM
CC1(C(=O)NCCC(F)(F)F)Cc2c(-c3cccc(C(F)(F)F)c3)ccnc2O1 (configuration not stated)	> 19500 nM (inactive)
O=C(C=Cc1cccc(O)c1)c1ccccc1O	4500 nM
O=C(c1cn(Cc2ccccc2)nc1-c1ccccc1)N1CCN(c2ccccn2)CC1	984 nM
O=C(N/N=C/c1ccco1)c1cc(-c2ccncc2)nc2ccccc12	7160 nM
Cn1c(SCC(=O)c2ccccc2)ncc(C(=O)Nc2ccccc2)c1=O	382 nM
Cc1ccc2c(c1)[C@H]1[C@H](CO2)[C@H](c2ccccc2)[C@]2(C)C(=O)Nc3cc(Cl)ccc3C(=O)N12	1060 nM
CC(C)Sc1ccccc1C(=O)Nc1ccc2c(c1)n(C)c(=O)n2C	1820 nM
O=C(CCl)Nc1cc(S(=O)(=O)N2CCCCCC2)ccc1Cl	1160 nM
COc1cc(NC(=O)c2ccccc2OCc2ccccc2)cc(OC)c1OC	1080 nM
Cc1ccc(C2=NN(C(=O)CSc3nccn3C)C(c3ccco3)C2)cc1 (configuration not stated)	323 nM
Cc1cc2cc(CNC(=O)Cc3cccs3)ccc2n1C	13600 nM
N#Cc1c(NC(=O)/C=C/c2ccco2)sc2c1CCCC2	115 nM
COc1cc(C(=O)N/N=C/c2ccc3c(c2)c2ccccc2n3C)ccc1O	9590 nM
NC(=O)c1cccc(-c2coc3c(C(=O)NCc4ccccc4)cccc23)c1	3070 nM
COc1ccc(NC(=O)CSc2nc3ccsc3c(=O)n2Cc2ccccn2)c(OC)c1	> 19500 nM (inactive)
N#Cc1c(N)n(CCc2ccc(F)cc2)c2nc3ccccc3nc12	1880 nM
COc1ccc(Nc2cc(C)nc(-n3nc(C)cc3C)n2)cc1	150 nM
CCN(CC)CCNC(=O)c1cc2c(=O)n(C)c3ccccc3c2s1	3550 nM
C/C(=N\NC(=O)c1c(Cl)c(C)nn1C)c1ccc(NC(=O)C2CCC2)cc1	475 nM
CCOc1cc(-c2c(C#N)c(N)nc3c2CCc2ccccc2-3)ccc1O	3850 nM
O=C(NCCN1C(=O)S/C(=C\c2ccccc2F)C1=O)C1=COCCO1	214 nM
OCCCN=c1cc(-c2ccccc2)oc2ccc(Cl)cc12	971 nM
COc1ccccc1NC(=O)c1cnc(SCC(=O)NCC2CCCO2)n(C)c1=O (configuration not stated)	4930 nM
CCC(c1nc2ccccc2c(=O)n1-c1nc2ccccc2s1)N1C(=O)c2ccccc2C1=O (configuration not stated)	740 nM
CC(=O)c1cccc(Nc2cc(C)nc3c(C)cc(C)cc23)c1	23.4 nM

SMILES	AC35
Cn1c(-c2ccccc2)c(/C=N/NC(=O)c2cccnc2)c2ccccc21	171 nM
COc1cccc(OCc2nc3ncc(Br)cc3[nH]2)c1	2480 nM
CCN(CC)c1ccc(C(=O)n2cnc3ccccc32)cc1	662 nM
CCCNc1nc2ccccc2n2c(C)nnc12	19.1 nM
O=C(NCCN1C(=O)S/C(=C\c2ccc(Cl)cc2Cl)C1=O)C1=COCCO1	3410 nM
COc1ccc(C(=O)c2ccc(OC)c(N)c2)cc1N	827 nM
Cc1ccc(C)n1-c1cccc(NC(=O)c2ccccc2)c1	7120 nM
Cc1ccc(C(=O)N/C(=C\c2cccs2)C(=O)NCCc2c[nH]c3ccccc23)cc1C	116 nM
O=C1NC(=O)N(Cc2ccco2)C(=O)/C1=C/C=C/c1ccco1	12300 nM
COc1cc(/C=C/C(=O)OCC(=O)NCc2ccc(F)cc2)ccc1O	88.1 nM
CCOC(=O)c1sc(Nc2nc(C)cc(C)n2)nc1C	1070 nM
CC(C)c1c(C(=O)Nc2ccccc2)c(-c2ccccc2)c(-c2ccc(F)cc2)n1CC[C@@H](O)C[C@@H](O)CC(=O)O	1260 nM
COc1ccccc1-c1cc(NC=O)c2ncc(-c3cccc(C(=O)N(C)C)c3)n2c1	48.3 nM
COc1ccc(Cl)cc1NC(=O)Nc1ccc(C(=O)N2CCCC2)cc1	2950 nM
COc1cc(C#Cc2ccc3cc(CCCO)oc(=O)c3c2)cc(OC)c1	62.8 nM
CC(=O)Nc1cc(-c2cccc(C(=O)N(C)C)c2)cn2c(-c3cccc(C(=O)N(C)C)c3)cnc12	1740 nM
COc1ccc(C(=O)Nc2sc(C)c(C)c2CN2CC(C)OC(C)C2)cc1 (configuration not stated)	352 nM
CCOc1cc(N2CCOCC2)c(OCC)cc1NC(=O)c1[nH]c(C)c(C(C)=O)c1C	10.7 nM
O=C(NC(=C(Cl)Cl)S(=O)(=O)c1ccc(Cl)cc1)c1ccccc1	2160 nM
O=c1cc(-c2ccccc2)[nH]c2ccccc12	2480 nM
Cc1cc(C)n(-c2nnc3n2N=C(c2c[nH]c4ccccc24)CS3)n1	28.5 nM
Cc1ccc(-c2cc(C(=O)N3CC(C)OC(C)C3)c3ccccc3n2)o1 (configuration not stated)	2910 nM
O=C(c1ccccc1-c1ccccc1)N1CCN(c2ccccn2)CC1	2040 nM
COc1ccc(/C=C/C(=O)c2ccccc2)cc1COc1ccccc1F	> 19500 nM (inactive)
COc1ccc(C(=O)N/N=C/C23CC[C@@H](O)CC2(O)CC[C@@H]2[C@@H]3CCC3(C)C(C4=CC(=O)OC4)CCC23O)cc1 (some centres not stated)	388 nM
